Test results published in US8609173B2, “Compositions comprising sweetness enhancers and methods of making them” (Senomyx Inc., priority 2008, dated 2013).

Assays:
External panelists = experiment: Line scale (15-point sucrose equivalence) sensory test, Example 5, sucrose or LSB, pH 7.1; assay type: in vivo, Human
Experimental: (§1) Several types of sensory tests were used to determine the efficacy of 3-(4-amino-2,2-dioxide-1H-benzo[c][1,2,6]thiadiazin-5-yloxy)-2′,2′-dimethyl-N-propylpropanamide 3-(4-amino-2,2-dioxide-1H-benzo[c][1,2,6]thiadiazin-5-yloxy)-2′,2′-dimethyl-N-propylpropanamide in enhancing the sweetness of sucrose. Two types of tests were conducted: • 1) Sensory scaling tests were performed using a 15-point percent sucrose equivalence scale for sweetness in order to evaluate sweetness enhancement 3-(4-amino-2,2-dioxide-1H-benzo[c][1,2,6]thiadiazin-5-yloxy)-2′,2′-dimethyl-N-propylpropanamide 3-(4-amino-2,2-dioxide-1H-benzo[c][1,2,6]thiadiazin-5-yloxy)-2′,2′-dimethyl-N-propylpropanamide in sucrose or in fructose. • 2) Paired comparison tests (2-alternative forced choice difference tests) were used to determine sweetness equivalence for solutions of sucrose vs. 3-(4-amino-2,2-dioxide-1H-benzo[c][1,2,6]thiadiazin-5-yloxy)-2′,2′-dimethyl-N-propylpropanamide 3-(4-amino-2,2-dioxide-1H-benzo[c][1,2,6]thiadiazin-5-yloxy)-2′,2′-dimethyl-N-propylpropanamide or buffer vs. 3-(4-amino-2,2-dioxide-1H-benzo[c][1,2,6]thiadiazin-5-yloxy)-2′,2′-dimethyl-N-propylpropanamide 3-(4-amino-2,2-dioxide-1H-benzo[c][1,2,6]thiadiazin-5-yloxy)-2′,2′-dimethyl-N-propylpropanamide. Stimuli:
Tests were performed with sucrose or fructose. The sweetener was evaluated with and/or without 3-(4-amino-2,2-dioxide-1H-benzo[c][1,2,6]thiadiazin-5-yloxy)-2′,2′-dimethyl-N-propylpropanamide 3-(4-amino-2,2-dioxide-1H-benzo[c][1,2,6]thiadiazin-5-yloxy)-2′,2′-dimethyl-N-propylpropanamide at the appropriate concentration(s).
3-(4-amino-2,2-dioxide-1H-benzo[c][1,2,6]thiadiazin-5-yloxy)-2′,2′-dimethyl-N-propylpropanamide was prepared as a concentrated stock solution in ethanol to ensure dissolution of the 3-(4-amino-2,2-dioxide-1H-benzo[c][1,2,6]thiadiazin-5-yloxy)-2′,2′-dimethyl-N-propylpropanamide. Therefore, all taste solutions contained ethanol in the final solution. Samples without 3-(4-amino-2,2-dioxide-1H-benzo[c][1,2,6]thiadiazin-5-yloxy)-2′,2′-dimethyl-N-propylpropanamide also contained an equivalent concentration of ethanol. For samples involving 3-(4-amino-2,2-dioxide-1H-benzo[c][1,2,6]thiadiazin-5-yloxy)-2′,2′-dimethyl-N-propylpropanamide at 5-10 ppm (up to 28 μM), the final concentration of ethanol was 0.2%; 30-40 μM, 0.4% ethanol; 50 μM, 0.5% ethanol; and 100 μM, 1% ethanol.
Taste samples were also prepared in low sodium phosphate buffer (pH 7.1; “LSB”) lacking sucrose to evaluate the taste of 3-(4-amino-2,2-dioxide-1H-benzo[c][1,2,6]thiadiazin-5-yloxy)-2′,2′-dimethyl-N-propylpropanamide alone. Low sodium phosphate buffer consists of 0.3 mM KCl, 0.5 mM Na2HPO4, and 0.175 mM KH2PO4.
In scaling test situations, the samples were rated on a 15-point scale for sweetness, ranging from 0=0% sucrose to 15=15% sucrose. To evaluate attributes other than sweetness, references are used for training and are prepared according to the table below. Note that each reference was given a score of 5 on the 15-point scale.
External panelists were used for the tests. The exact number of panelists is reported with test results. Subjects were instructed not to eat or drink anything (except water) for at least 1 hour prior to the test.
Panelists rinsed their mouths with water prior to starting any test. Samples were presented to panelists in a randomized, counterbalanced order. Panelists rinsed with water and had up to a 1 minute delay to clear the mouth of any tastes after each evaluation. Two replicates of each test were performed, unless otherwise noted.
In scaling tests, panelists rate samples monadically for the attributes listed above (see Stimuli). In paired comparison tests, panelists taste pairs of solutions and indicate which sample is perceived to be sweeter.
Attributes of interest are reported for each scaling taste test.
Panelists rinsed their mouths with water prior to starting any test. Samples were presented to panelists in a randomized, counterbalanced order. […]

Panelists = experiment: Paired comparison taste test, Example 7, sucrose or fructose solutions; assay type: in vivo, Human; conditions: 1% Sucrose chosen, vs 28 μM (9.9 ppm) compound; n = 32
Experimental: as §1
Panelists evaluated two solutions in a paired comparison taste test procedure. They were instructed to select the sweeter of the two samples. They were also asked to comment on how difficult it was to tell the difference in sweetness between both samples and if any off tastes were perceived.
Panelists evaluated two solutions in a paired comparison taste test procedure and were instructed to select the sweeter of the two samples.

For `OC[C@H]1O[C@@](CO)(O[C@H]2O[C@H](CO)[C@@H](O)[C@H](O)[C@H]2O)[C@@H](O)[C@@H]1O` [Sucrose, sucrose], the “Average Sweetness” value (External panelists; 1% Sucrose, Table 25, n = 30) was 1.2, the “Average Bitterness” value (External panelists; 1% Sucrose, Table 26, n = 30) was 0.4 and the “Average Sweetness” value (External panelists; 2% Sucrose, Table 20, n = 30) was 2.3. For the same compound, the “Average Bitterness” value (External panelists; 2% Sucrose, Table 21, n = 30) was 0.3, the “Average Sweetness” value (External panelists; 2% Sucrose, Table 22, n = 14) was 2.3 and the “Average Sweetness” value (External panelists; 2% Sucrose, Table 25, n = 30) was 2.2. For the same compound, the “Average Bitterness” value (External panelists; 2% Sucrose, Table 26, n = 30) was 0.3, the “Average Sweetness” value (External panelists; 2% Sucrose, Table 27, n = 28) was 2.0 and the “Average Bitterness” value (External panelists; 2% Sucrose, Table 28, n = 28) was 0.1. The “Average Sweetness” value (External panelists; 4% Sucrose, Table 20, n = 30) was 4.2, the “Average Bitterness” value (External panelists; 4% Sucrose, Table 21, n = 30) was 0.2 and the “Average Sweetness” value (External panelists; 4% Sucrose, Table 22, n = 14) was 4.3. The “Average Sweetness” value (External panelists; 4% Sucrose, Table 25, n = 30) was 4.4, the “Average Bitterness” value (External panelists; 4% Sucrose, Table 26, n = 30) was 0.3 and the “Average Sweetness” value (External panelists; 4% Sucrose, Table 27, n = 28) was 4.2. For the same compound, the “Average Bitterness” value (External panelists; 4% Sucrose, Table 28, n = 28) was 0.1, the “Average Sweetness” value (External panelists; 6% Sucrose, Table 16, n = 15) was 6.3 and the “Average Bitterness” value (External panelists; 6% Sucrose, Table 17, n = 15) was 0.3. For the same compound, the “Average Sweetness” value (External panelists; 6% Sucrose, Table 18, n = 24) was 6.2, the “Average Bitterness” value (External panelists; 6% Sucrose, Table 19, n = 24) was 0.2 and the “Average Sweetness” value (External panelists; 6% Sucrose, Table 20, n = 30) was 5.8. The “Average Bitterness” value (External panelists; 6% Sucrose, Table 21, n = 30) was 0.2, the “Average Sweetness” value (External panelists; 6% Sucrose, Table 22, n = 14) was 5.7 and the “Average Sweetness” value (External panelists; 6% Sucrose, Table 23, n = 30) was 6.7. For the same compound, the “Average Bitterness” value (External panelists; 6% Sucrose, Table 24, n = 30) was 0.4, the “Average Sweetness” value (External panelists; 6% Sucrose, Table 25, n = 30) was 6.4 and the “Average Bitterness” value (External panelists; 6% Sucrose, Table 26, n = 30) was 0.6. The “Average Sweetness” value (External panelists; 6% Sucrose, Table 27, n = 28) was 6.1, the “Average Bitterness” value (External panelists; 6% Sucrose, Table 28, n = 28) was 0.1 and the “Average Sweetness” value (External panelists; 8% Sucrose, Table 16, n = 15) was 7.7. For the same compound, the “Average Bitterness” value (External panelists; 8% Sucrose, Table 17, n = 15) was 0.1, the “Average Sweetness” value (External panelists; 8% Sucrose, Table 18, n = 24) was 8.3 and the “Average Bitterness” value (External panelists; 8% Sucrose, Table 19, n = 24) was 0.1. For the same compound, the “Average Sweetness” value (External panelists; 8% Sucrose, Table 23, n = 30) was 8.3, the “Average Bitterness” value (External panelists; 8% Sucrose, Table 24, n = 30) was 0.4 and the “Average Sweetness” value (External panelists; 8% Sucrose, Table 25, n = 30) was 8.7. The “Average Bitterness” value (External panelists; 8% Sucrose, Table 26, n = 30) was 0.3, the “Average Sweetness” value (External panelists; 8% Sucrose, Table 27, n = 28) was 8.4 and the “Average Bitterness” value (External panelists; 8% Sucrose, Table 28, n = 28) was 0.2. The “Average Sweetness” value (External panelists; 9% Sucrose, Table 16, n = 15) was 9.0, the “Average Bitterness” value (External panelists; 9% Sucrose, Table 17, n = 15) was 0.1 and the “Average Sweetness” value (External panelists; 9% Sucrose, Table 18, n = 24) was 9.3. The “Average Bitterness” value (External panelists; 9% Sucrose, Table 19, n = 24) was 0.1, the “Average Sweetness” value (External panelists; 10% Sucrose, Table 16, n = 15) was 9.2 and the “Average Bitterness” value (External panelists; 10% Sucrose, Table 17, n = 15) was 0.2. For the same compound, the “Average Sweetness” value (External panelists; 10% Sucrose, Table 18, n = 24) was 9.8, the “Average Bitterness” value (External panelists; 10% Sucrose, Table 19, n = 24) was 0.1 and the “Average Sweetness” value (External panelists; 10% Sucrose, Table 23, n = 30) was 10.3. The “Average Bitterness” value (External panelists; 10% Sucrose, Table 24, n = 30) was 0.2, the “Average Sweetness” value (External panelists; 10% Sucrose, Table 25, n = 30) was 10.5 and the “Average Bitterness” value (External panelists; 10% Sucrose, Table 26, n = 30) was 0.3. For the same compound, the “Average Sweetness” value (External panelists; 10% Sucrose, Table 27, n = 28) was 9.6, the “Average Bitterness” value (External panelists; 10% Sucrose, Table 28, n = 28) was 0.1 and the “Average Sweetness” value (External panelists; 12% Sucrose, Table 18, n = 24) was 11.1. The “Average Bitterness” value (External panelists; 12% Sucrose, Table 19, n = 24) was 0.0, the “Average Sweetness” value (External panelists; 12% Sucrose, Table 23, n = 30) was 11.2 and the “Average Bitterness” value (External panelists; 12% Sucrose, Table 24, n = 30) was 0.3. For the same compound, the “Sample selected as more sweet by panelists, Total” value (Panelists) was 28.
